These results are taken from patent publication US20180133331A1, “Site-Specific DNA-Doxorubicin Conjugates Display Enhanced Cytotoxicity to Breast Cancer Cells” (priority 2014, published 2018).

Structures are written as SMILES.

The data set deals with Salmon Sperm DNA. Kind of data set: Dox transfer from DCH to salmon sperm DNA (fluorescence quenching, stability of Dox:hairpin conjugate). The format is physicochemical. Conditions: 100-fold excess spDNA (w/w), 37° C. As for the experimental part: Dox transfer from DCH: Samples of 2.5 μM (approximately 2 μg in 100 uL) DCH, doxorubicin, or hairpin+doxorubicin were prepared in DPBS with or without a 100-fold by weight (200 μg) excess of Salmon Sperm DNA and incubated at 37° C. Fluorescence intensity was determined by Typhoon-9210 variable mode imager with excitation set to 532 nm and the emission filter at 610 nm.
Stability of Dox:Hairpin Conjugate. It was hypothesized that covalent binding of Dox would allow for the Dox-conjugated hairpin to serve as a delivery vehicle with improved pharmacological properties and reduced systemic toxicities relative to conventional Dox. In order for the hairpin to act as an efficient delivery vehicle, Dox must remain stably bound under physiological conditions, but also undergo intracellular release and transfer to genomic DNA. […] Using the difference in fluorescence between hairpin-bound Dox and Dox intercalated into DNA, the half-life of the Dox-hairpin bond was measured. An assay was developed to quantify the transfer of Dox from the hairpin to genomic DNA under physiologic conditions. This assay is based on the difference in fluorescence of Dox in the context of the hairpin conjugate relative to genomic DNA. […] Reactions were incubated at 37° C. with fluorescence quenching measured over 48 h. […]

For `COc1cccc2c1C(=O)c1c(O)c3c(c(O)c1C2=O)C[C@@](O)(C(=O)CO)C[C@@H]3O[C@H]1C[C@H](N)[C@H](O)[C@H](C)O1` [Dox, Doxorubicin], the “fluorescence quenching following addition of spDNA” value was “fully quenched within one hour”.
